Measured values published in PubChem BioAssay AID651912 (NMMLSC, 2012).

These compounds were tested against Beta-2 adrenergic receptor (Homo sapiens) (UniProt P07550) (assay: beta2AR agonists driving receptor internalization, dose response, cell-based, FAP fluorogen, flow cytometry, powder set 5 (AID 651912)). Conditions: AM2.2-beta2AR cells, 90 min;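 active = compounds with a fitted half-maximal potency EC50 under 10000 nM; inactive = the rest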.
Sequence of Beta-2 adrenergic receptor (Homo sapiens) (P07550 whole entry, looked up): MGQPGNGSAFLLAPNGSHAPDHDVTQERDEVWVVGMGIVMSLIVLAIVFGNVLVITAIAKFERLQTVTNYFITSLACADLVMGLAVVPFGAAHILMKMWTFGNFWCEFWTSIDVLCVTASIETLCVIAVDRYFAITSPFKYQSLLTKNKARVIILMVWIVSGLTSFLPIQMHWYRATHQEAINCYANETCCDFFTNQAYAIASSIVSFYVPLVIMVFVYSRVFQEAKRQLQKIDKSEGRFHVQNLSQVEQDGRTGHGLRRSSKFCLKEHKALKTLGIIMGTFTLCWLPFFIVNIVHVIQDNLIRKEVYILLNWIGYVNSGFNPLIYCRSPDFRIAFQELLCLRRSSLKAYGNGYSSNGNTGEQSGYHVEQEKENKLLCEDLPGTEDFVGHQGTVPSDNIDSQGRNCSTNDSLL

EC50, active:
CCC(=O)Nc1ccc(S(=O)(=O)N2CCCCC2CC)cc1 (configuration not stated) 4.8 nM
CN(CC(=O)N1CCN(c2ccc(F)cc2)CC1)S(=O)(=O)c1ccc(Br)cc1 336 nM
O=C(C1CCCN1S(=O)(=O)c1ccc(Cl)cc1)N1CCN(c2ccccn2)CC1 (configuration not stated) 219 nM
CC1CCCCN1S(=O)(=O)c1ccc(NC(=O)c2cccnc2)cc1 (configuration not stated) 134 nM
Cc1cccc(C(=O)Nc2ccc(S(=O)(=O)N3CCCCC3C)cc2)c1 (configuration not stated) 4030 nM
CC(=O)Nc1ccc(S(=O)(=O)N2CCCCC2C)cc1 (configuration not stated) 80.2 nM
CCC1CCCCN1S(=O)(=O)c1ccc(NC(C)=O)cc1 (configuration not stated) 132 nM
